Test results published in patent EP0771801B1, “Chromane derivatives” (AMERICAN HOME PRODUCTS CORPORATION, priority 1995, dated 1997).
Read-outs that look alike come from different tables or passages of the source.

What was measured:
dopamine autoreceptor = molecular target: T1, dopamine autoreceptor (Rattus norvegicus, UniProt P61169); assay: Affinity for the dopamine autoreceptor: [3H]-quinpirole binding in homogenized rat striatal brain tissue; conditions: for IC50: [3H]-quinpirole, rat striatal brain tissue, read-out: IC50 (nM) D2 Quin.; for Ratio antagonist: ratio of D2 Spiper IC50 to D2 Quin. IC50 (LowAg/HighAg, predicts intrinsic activity)
T1 construct: from tissue; host or cells: rat striatal brain tissue homogenate
Procedure: Affinity for the dopamine autoreceptor was established by a modification of the standard experimental test procedure of Seemen and Schaus, European Journal of Pharmacology 203: 105-109, 1991, wherein homogenized rat striatal brain tissue is incubated with [^3H]-quinpirole (Quin.) at various concentrations of test compound, filtered, washed and counted in a Betaplate scintillation counter.

5-HT1a = molecular target: T2, 5-HT1a (Homo sapiens, UniProt P08908); assay: 5-HT1a binding (method not described)
T2 sequence (P08908 1-422): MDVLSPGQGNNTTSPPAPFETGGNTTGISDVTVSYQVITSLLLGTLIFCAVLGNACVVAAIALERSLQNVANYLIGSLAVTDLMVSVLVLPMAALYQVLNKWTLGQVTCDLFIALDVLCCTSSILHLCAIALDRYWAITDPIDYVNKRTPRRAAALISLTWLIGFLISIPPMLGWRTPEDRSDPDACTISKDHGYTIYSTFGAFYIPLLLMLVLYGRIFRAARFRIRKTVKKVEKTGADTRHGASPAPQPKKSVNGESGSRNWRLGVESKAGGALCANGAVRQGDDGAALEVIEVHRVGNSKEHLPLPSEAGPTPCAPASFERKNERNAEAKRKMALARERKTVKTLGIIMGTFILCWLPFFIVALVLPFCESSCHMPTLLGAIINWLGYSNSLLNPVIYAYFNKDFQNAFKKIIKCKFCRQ

α1 = α1 binding (method not described)

T1 sequence (P61169 whole entry): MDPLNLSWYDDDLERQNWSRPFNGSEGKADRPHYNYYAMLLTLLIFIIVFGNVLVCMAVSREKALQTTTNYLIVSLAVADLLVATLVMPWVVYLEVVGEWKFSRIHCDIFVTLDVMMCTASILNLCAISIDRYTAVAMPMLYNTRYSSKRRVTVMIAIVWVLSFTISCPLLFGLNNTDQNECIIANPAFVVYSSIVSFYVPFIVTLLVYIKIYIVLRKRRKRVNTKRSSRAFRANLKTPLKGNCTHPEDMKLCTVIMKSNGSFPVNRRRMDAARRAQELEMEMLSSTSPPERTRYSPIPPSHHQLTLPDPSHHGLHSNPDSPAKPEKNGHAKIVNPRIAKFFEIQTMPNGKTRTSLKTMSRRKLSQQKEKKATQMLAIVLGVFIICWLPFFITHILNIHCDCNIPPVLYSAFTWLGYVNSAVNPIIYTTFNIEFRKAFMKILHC

| IC50 (5-HT1a; read-out: IC50 (nM) 5-HT1a.) [nM] | Compound | IC50 (dopamine autoreceptor) [nM] | Ratio antagonist (dopamine autoreceptor) | IC50 (α1) [nM] | IC50 (5-HT1a; IC50 (nM) 5-HT1a.) [nM] |
| --- | --- | --- | --- | --- | --- |
| 16 | O=C1Cc2c(ccc3c2OC(CNCc2ccc(F)cc2)CC3)N1 (centres unmarked) [Example 1b, 2-(4-Fluoro-benzylamino-methyl)-3,4,7,9-tetrahydro-2H-pyrano[2,3-e]indol-8-one] | 0.83 | 375 | 352 |  |
| 38 | COc1ccc(CNCC2CCc3ccc4c(c3O2)CC(=O)N4)cc1 (centres unmarked) [Example 1c, 2-(4-Methoxy-benzylamino-methyl)-3,4,7,9-tetrahydro-2H-pyrano[2,3-e]indol-8-one] | 0.96 | 307 | 258 |  |
| 10 | Cc1ccc(CNCC2CCc3ccc4c(c3O2)CC(=O)N4)cc1 (centres unmarked) [Example 1d, 2-(4-Methyl-benzylamino-methyl)-3,4,7,9-tetrahydro-2H-pyrano[2,3-e]indol-8-one] | 0.45 | 229 | 194 |  |
| 7.53 | O=C1Cc2c(ccc3c2OC(CNCc2ccc(Cl)cc2)CC3)N1 (centres unmarked) [Example 1e, 2-(4-Chloro-benzylamino-methyl)-3,4,7,9-tetrahydro-2H-pyrano[2,3-e]indol-8-one] | 0.64 | 233 | 184 |  |
|  | Cc1ccc(CNCC2CCc3ccc4c(c3O2)CC(=O)N4)c(C)c1 (centres unmarked) [Example 1f, 2-(2,4-Dimethyl-benzylamino-methyl)-3,4,7,9-tetrahydo-2H-pyrano[2,3-e]indol-8-one] | 2.62 | 150 | 81 | 15 |

| Compound | IC50 (5-HT1a; read-out: IC50 (nM) 5-HT1a.) [nM] | IC50 (dopamine autoreceptor) [nM] | Ratio antagonist (dopamine autoreceptor) | IC50 (α1) [nM] | IC50 (5-HT1a; IC50 (nM) 5-HT1a.) [nM] |
| --- | --- | --- | --- | --- | --- |
| O=C1Cc2c(ccc3c2OC(CNCc2ccccc2)CC3)N1 (single isomer, unassigned; (+)) [Example 2a, (+)-2-(benzylamino-methyl)-3,4,7,9-tetrhydro-2H-pyrano[2,3-e]indol-8-one] | 330 | 16.4 | 45 | 519 |  |
| O=C1Cc2c(ccc3c2OC(CNCc2ccccc2)CC3)N1 (single isomer, unassigned; (-)) [Example 2b, (-)-2-(benzylamino-methyl)-3,4,7,9-tetrhydro-2H-pyrano[2,3-e]indol-8-one] | 17.1 | 0.27 | 265 | 330 |  |
| O=C1Cc2c(ccc3c2OC(CNCc2ccccc2)CC3)N1 (centres unmarked) [Example 1a, 2-(Benzylamino-methyl)-3,4,7,9-tetrahydro-2H-pyrano-[2,3-e]indol-8-one] | 34 | 0.73 | 194 | 244 |  |
